In ChEMBL document CHEMBL4052616, “Isoniazid derivatives and their anti-tubercular activity” (Eur J Med Chem, 2017):
≈ marks a conversion by molar mass, not a printed value.

Experiments:
Format in all cases: functional
[1] = system: Mycobacterium tuberculosis; experiment: Antitubercular activity against Mycobacterium tuberculosis H37Rv after 10 days by tube dilution method; details: 240 h
[2] = system: Mycobacterium tuberculosis; experiment: Antimycobacterial activity against Bovin sensitive Mycobacterium tuberculosis measured after six weeks
[3] = system: Mycobacterium tuberculosis; experiment: Antimycobacterial activity against human sensitive Mycobacterium tuberculosis measured after six weeks
[4] = system: Mycobacterium tuberculosis; experiment: Antitubercular activity against Mycobacterium tuberculosis H37Rv
[5] = system: Mycobacterium tuberculosis; experiment: Antimycobacterial activity against Mycobacterium tuberculosis H37Rv ATCC 27294 at < 0.1 ug/mL by microplate alamar blue assay
[6] = system: Mycobacterium tuberculosis; experiment: Antimycobacterial activity against Mycobacterium tuberculosis H37Rv after 10 to 12 days by serial dilution method
Mycobacterium kansasii = experiment: Antimycobacterial activity against Mycobacterium kansasii by serial dilution method
Mycobacterium avium = experiment: Antimycobacterial activity against Mycobacterium avium by serial dilution method
[7] = system: Mycobacterium intracellulare; experiment: Antimycobacterial activity against Mycobacterium intracellulare by serial dilution method
[8] = system: Mycolicibacterium fortuitum; experiment: Antimycobacterial activity against Mycobacterium fortuitum by serial dilution method
[9] = system: Mycolicibacterium smegmatis; experiment: Antimycobacterial activity against Mycobacterium smegmatis ATCC 607 by serial dilution method
Mycolicibacterium phlei = experiment: Antimycobacterial activity against Mycobacterium phlei by serial dilution method
[10] = system: Mycobacterium tuberculosis; experiment: Antimycobacterial activity against Mycobacterium tuberculosis H37Rv by NCCLS method
[11] = system: Mycobacterium tuberculosis; experiment: Potency index, ratio of pyrazinamide MIC to compound MIC for Mycobacterium tuberculosis H37Rv
[12] = system: Mycobacterium tuberculosis; experiment: Antimycobacterial activity against Mycobacterium tuberculosis H37Rv after 5 days by microplate alamar blue assay; details: 120 h
[13] = system: Mycobacterium tuberculosis; experiment: Antimycobacterial activity against Mycobacterium tuberculosis H37Rv ATCC 27294 measured after 5 to 8 days
[14] = system: Mycobacterium tuberculosis; experiment: Growth inhibition of Mycobacterium tuberculosis H37Rv ATCC 27294 measured after 5 to 8 days
[15] = system: Mycobacterium tuberculosis; experiment: Antimycobacterial activity against Mycobacterium tuberculosis infected in C57BL/6 mouse assessed as colony forming units per lung at 25 mg/kg administered via gavage for 2 days measured last post dose (reference value: 6.53 +/- 0.16 log10CFU)
[16] = system: Mycobacterium tuberculosis; experiment: Antimycobacterial activity against Mycobacterium tuberculosis clinical isolate 303 by broth dilution method
[17] = system: Mycobacterium tuberculosis; experiment: Antimycobacterial activity against Mycobacterium tuberculosis clinical isolate 1889 by broth dilution method
[18] = system: Mycobacterium tuberculosis; experiment: Antimycobacterial activity against Mycobacterium tuberculosis clinical isolate 35829 by broth dilution method
[19] = system: Mycobacterium tuberculosis; experiment: Antimycobacterial activity against Mycobacterium tuberculosis H37Rv by serial dilution method
[20] = system: Mycobacterium tuberculosis; experiment: Antimycobacterial activity against Mycobacterium tuberculosis Academia by serial dilution method

Q: Which MIC [1] does the source give for `O=C(NNc1nc(Cl)nc(NNC(=O)c2ccncc2)n1)c1ccncc1` here?
A: 20 µg/mL (≈ 51.8 µM)

Q: `O=C(N/N=C1\C(=O)N(Cc2ccccc2)c2ccccc21)c1ccncc1` was tested. Which MIC [2] did it give?
A: 2.7 to 3.5 µg/mL (≈ 7.58 to 9.82 µM)

Q: And the MIC [3]?
A: 2.7 to 3.5 µg/mL (≈ 7.58 to 9.82 µM)

Q: For `O=C(NN1C(=O)C(Cl)C1c1cc2ccccc2nc1Cl)c1ccncc1` (configuration not stated), which MIC [4] is on record?
A: 12.5 µg/mL

Q: For `C[C@]12CC/C(=N\NC(=O)c3ccncc3)C=C1CC[C@@H]1[C@@H]2CC[C@]2(C)/C(=N/NC(=O)c3ccncc3)CC[C@@H]12`, which “inhibition (INH)” value [5] is on record?
A: >95%

Q: For `Cc1ccc2nc(Cl)c(C3C(Cl)C(=O)N3NC(=O)c3ccncc3)cc2c1` (configuration not stated), which MIC [4] is on record?
A: 12.5 µg/mL

Q: How did the MIC [6] turn out when `C[C@]12CC[C@H]3[C@@](CC[C@@H]4[C@]3(C)CCC[C@@]4(C)C(=O)O)(C/C1=N/NC(=O)c1ccncc1)C2` was run?
A: 10 to 20 µg/mL (≈ 22.9 to 45.7 µM)

Q: How did the MIC (Mycobacterium kansasii) turn out when `C[C@]12CC[C@@H](O)C[C@@H]1CC[C@@H]1[C@@H]2CC[C@]2(C)/C(=N/NC(=O)c3ccncc3)CC[C@@H]12` was run?
A: 3.5 to 1000 µg/mL (≈ 8.55 to 2440 µM)

Q: And the MIC (Mycobacterium avium)?
A: 3.5 to 1000 µg/mL (≈ 8.55 to 2440 µM)

Q: And the MIC [7]?
A: 3.5 to 1000 µg/mL (≈ 8.55 to 2440 µM)

Q: And the MIC [8]?
A: 3.5 to 1000 µg/mL (≈ 8.55 to 2440 µM)

Q: And the MIC [9]?
A: 3.5 to 1000 µg/mL (≈ 8.55 to 2440 µM)

Q: What about the MIC (Mycolicibacterium phlei) of the same compound?
A: 3.5 to 1000 µg/mL (≈ 8.55 to 2440 µM)

Q: Which MIC [10] does the source give for `Cc1c(C(=O)NNC(=O)c2ccncc2)nn(-c2ccc(Cl)cc2Cl)c1-c1ccc(Cl)cc1` here?
A: 12.5 µg/mL (≈ 25 µM)

Q: And the Ratio [11]?
A: 2

Q: For `COc1nc2ccc(Cl)cc2cc1C1C(Cl)C(=O)N1NC(=O)c1ccncc1` (configuration not stated), which MIC [4] is on record?
A: 3.12 to 6.25 µg/mL

Q: `COc1cc(C2SCC(=O)N2NC(=O)c2ccccc2)ccc1O` (configuration not stated) was tested. Which MIC [12] did it give?
A: 0.31 µg/mL (≈ 0.9 µM)

Q: `O=C(NNc1nc(Cl)nc(NC(=O)c2cnccn2)n1)c1ccncc1` was tested. Which MIC [1] did it give?
A: 20 µg/mL (≈ 53.8 µM)

Q: For `CCn1cc(C(=O)O)c(=O)c2cc(F)c(N3CCN(CN4C(=O)/C(=N\NC(=O)c5ccncc5)c5ccccc54)CC3)cc21`, which MIC [13] is on record?
A: < 6.25 µg/mL

Q: And the “growth inhibition (GI)” value [14]?
A: 100%

Q: `C=C1C[C@]23CC[C@@H]4[C@](C)(CCC[C@@]4(C)C(=O)O)[C@H]2CC[C@]1(O[C@@H]1O[C@H](CO)[C@@H](O)[C@H](O)[C@H]1O[C@@H]1O[C@H](CO)[C@@H](O)[C@H](O)[C@H]1O)C3` was tested. Which MIC [6] did it give?
A: 3.75 to 5 µg/mL (≈ 5.83 to 7.78 µM)

Q: For `C=C1C[C@]23CC[C@@H]4[C@](C)(CCC[C@@]4(C)C(=O)NNc4cccnc4)[C@H]2CC[C@]1(O[C@@H]1O[C@H](COC(C)=O)[C@@H](OC(C)=O)[C@H](OC(C)=O)[C@H]1O[C@@H]1O[C@H](COC(C)=O)[C@@H](OC(C)=O)[C@H](OC(C)=O)[C@H]1O)C3`, which MIC [6] is on record?
A: 10 µg/mL (≈ 10.1 µM)

Q: With `C[C@]12CC=CC[C@@H]1CC[C@@H]1[C@@H]2CC[C@]2(C)/C(=N/NC(=O)c3ccncc3)CC[C@@H]12` as the compound, how does the “inhibition (INH)” value [5] read?
A: >95%

Q: `COc1ccc(/C=C2\SC(=O)N(CNNC(=O)c3ccncc3)C2=O)cc1` was tested. Which MIC [4] did it give?
A: 50 to 100 µg/mL

Q: Which MIC [4] does the source give for `COc1nc2ccc(C)cc2cc1C1C(Cl)C(=O)N1NC(=O)c1ccncc1` (configuration not stated) here?
A: 3.12 to 6.25 µg/mL

Q: Which MIC [10] does the source give for `CC[C@@H](CO)NCCN[C@@H](CC)CO` [ETHAMBUTOL] here?
A: 3.25 µg/mL (≈ 15.9 µM)

Q: Which MIC [4] does the source give for `COc1c(N2CCNC(C)C2)c(F)cc2c(=O)c(C(=O)O)cn(C3CC3)c12` (configuration not stated) [GATIFLOXACIN] here?
A: 3.12 µg/mL

Q: Which Activity [15] does the source give for `NNC(=O)c1ccncc1` [ISONIAZID] here?
A: 5.34 log10CFU

Q: And the MIC [16]?
A: 4 to 8 µg/mL (≈ 29.2 to 58.3 µM)

Q: And the MIC [17]?
A: 4 to 8 µg/mL (≈ 29.2 to 58.3 µM)

Q: What about the MIC [18] of the same compound?
A: 4 to 8 µg/mL (≈ 29.2 to 58.3 µM)

Q: And the MIC [12]?
A: 0.2 µg/mL (≈ 1.46 µM)

Q: And the MIC [2]?
A: 1.4 µg/mL (≈ 10.2 µM)

Q: And the MIC [3]?
A: 1.4 µg/mL (≈ 10.2 µM)

Q: What about the MIC [13] of the same compound?
A: 0.025 to 0.05 µg/mL (≈ 0.182 to 0.365 µM)

Q: And the MIC [19]?
A: 0.015 to 0.06 µg/mL (≈ 0.109 to 0.438 µM)

Q: What about the MIC [6] of the same compound?
A: 0.1 µg/mL (≈ 0.729 µM)

Q: And the MIC [10]?
A: 0.05 µg/mL (≈ 0.365 µM)

Q: And the MIC [4]?
A: 1.45 µM

Q: What about the “growth inhibition (GI)” value [14] of the same compound?
A: 95%

Q: What about the MIC [20] of the same compound?
A: 0.015 to 0.06 µg/mL (≈ 0.109 to 0.438 µM)

Q: Which results are given for `NC(=O)c1cnccn1` [PYRAZINAMIDE]?
A: MIC [6]: 20 µg/mL (≈ 162 µM); MIC [10]: 50 µg/mL (≈ 406 µM)

Q: For `CO[C@H]1/C=C/O[C@@]2(C)Oc3c(C)c(O)c4c(O)c(c(/C=N/N5CCN(C)CC5)c(O)c4c3C2=O)NC(=O)/C(C)=C\C=C\[C@H](C)[C@H](O)[C@@H](C)[C@@H](O)[C@@H](C)[C@H](OC(C)=O)[C@@H]1C` [RIFAMPIN], which MIC [12] is on record?
A: 1 µg/mL (≈ 1.22 µM)

Q: What about the MIC [13] of the same compound?
A: 0.25 µg/mL (≈ 0.304 µM)

Q: And the MIC [10]?
A: 0.1 µg/mL (≈ 0.122 µM)

Q: And the “growth inhibition (GI)” value [14]?
A: 86%
